The source of these data is the supplement of paper PMC11923942.

Data set [1] can be described thus: GC retention time (DB-5MS, GC-APCI); higher = later elution. As for the experimental part: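 Standards of hydrophobic organic contaminants were analysed by GC-APCI (positive mode, dry or wet source conditions) coupled to cyclic ion mobility-QTOF MS. CCS was measured for the base ion (sometimes a fragment ion) in N2 drift gas (one-pass mode, calibrated with a Waters 22-compound mix). 5 mL/min).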

Data set [2] is described as follows: collision cross section (N2, base ion); higher = larger ion cross section. As for the experimental part: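 Standards of hydrophobic organic contaminants were analysed by GC-APCI (positive mode, dry or wet source conditions) coupled to cyclic ion mobility-QTOF MS. CCS was measured for the base ion (sometimes a fragment ion) in N2 drift gas (one-pass mode, calibrated with a Waters 22-compound mix).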

For `CCCCC(CC)COC(=O)c1cc(Br)c(Br)c(Br)c1Br` (stereo not drawn) [2-Ethylhexyl-2,3,4,5-tetrabromobenzoate] (APCI source condition: Dry, base ion: C7H3Br4O2+), in data set [1], the GC retention time came out at 24.2 min. Besides, in data set [2], the collision cross section came out at 141.48 Å².

Regarding `Clc1ccc(C(c2ccc(Cl)cc2)C(Cl)Cl)cc1` [4,4'-DDD] (APCI source condition: Dry, base ion: [M-CHCl2]+), in data set [1], the GC retention time turned out to be 20.1 min. The compound further yielded a collision cross section in data set [2] of 142.2 Å².

With `ClC(Cl)=C(c1ccc(Cl)cc1)c1ccc(Cl)cc1` [4,4'-DDE] (APCI source condition: Dry, base ion: M+.), the GC retention time in data set [1] is 19.3 min. Also, the collision cross section in data set [2] is on record as 159.06 Å².

In the case of `Clc1ccc(C(c2ccc(Cl)cc2)C(Cl)(Cl)Cl)cc1` [4,4'-DDT] (APCI source condition: Dry, base ion: [M-CCl3]+), the GC retention time in data set [1] amounted to 20.8 min. In addition, in data set [2], the collision cross section was 140.31 Å².

For the compound `c1ccc2cc3ccccc3cc2c1` [Anthracene] (APCI source condition: Dry, base ion: M+.), in data set [1], the GC retention time is 15.7 min. Also, the collision cross section in data set [2] worked out at 138 Å².

In the case of `c1ccc2cc3c(ccc4ccccc43)cc2c1` [Benzo(a)anthracene] (APCI source condition: Dry, base ion: M+.), the GC retention time in data set [1] came out at 21.8 min. This compound had a collision cross section in data set [2] of 140.47 Å².

With `c1ccc2c(c1)cc1ccc3cccc4ccc2c1c34` [Benzo(a)pyrene] (APCI source condition: Dry, base ion: M+.), in data set [1], the GC retention time turned out to be 24.8 min. This compound gave a collision cross section in data set [2] of 143.28 Å².

With `c1ccc2c(c1)-c1cccc3c1c-2cc1ccccc13` [Benzo(b)fluoranthene] (APCI source condition: Dry, base ion: M+.), the GC retention time in data set [1] was 24.2 min. In data set [2], the collision cross section worked out at 145.46 Å².

Turning to `c1ccc2c(c1)ccc1ccc3ccccc3c12` [Benzo(c)phenanthrene] (APCI source condition: Dry, base ion: M+.), the GC retention time in data set [1] was found to be 21.3 min. Further, in data set [2], the collision cross section is given as 140.99 Å².

In turn, `c1ccc2c(c1)c1cccc3ccc4cccc2c4c31` [Benzo(e)pyrene] (APCI source condition: Dry, base ion: M+.) yielded a GC retention time in data set [1] of 24.7 min. This compound also gave a collision cross section in data set [2] of 142.88 Å².

Regarding `c1cc2ccc3ccc4ccc5cccc6c(c1)c2c3c4c56` [Benzo(g,h,i)perylene] (APCI source condition: Dry, base ion: M+.), the GC retention time in data set [1] is 27.1 min. This compound also gave a collision cross section in data set [2] of 150.71 Å².

With `c1ccc2cc3c(cc2c1)-c1cccc2cccc-3c12` [Benzo(k)fluoranthene] (APCI source condition: Dry, base ion: M+.), the GC retention time in data set [1] came to 24.2 min. Besides, in data set [2], the collision cross section is given as 145.45 Å².

`CCCCC(CC)COC(=O)c1c(Br)c(Br)c(Br)c(Br)c1C(=O)OCC(CC)CCCC` (stereo not drawn) [Bis(2-ethylhexyl) tetrabromophthalate] (APCI source condition: Dry, base ion: C8HBr4O3+) displayed a GC retention time in data set [1] of 30.1 min. Besides, the collision cross section in data set [2] is recorded as 141.58 Å².

As for `c1ccc2c(c1)ccc1c3ccccc3ccc21` [Chrysene] (APCI source condition: Dry, base ion: M+.), the GC retention time in data set [1] turned out to be 21.9 min. This compound also yielded a collision cross section in data set [2] of 141.28 Å².

As for `c1ccc2c(c1)ccc1cc3c(ccc4ccccc43)cc12` [Dibenzo(a,h)anthracene] (APCI source condition: Dry, base ion: M+.), the GC retention time in data set [1] was found to be 27.2 min. In data set [2], the collision cross section came to 154.91 Å².

The compound `c1ccc2c(c1)sc1ccccc12` [Dibenzothiophene] (APCI source condition: Dry, base ion: M+.) returned a GC retention time in data set [1] of 15.2 min. The compound also returned a collision cross section in data set [2] of 137.55 Å².

Turning to `ClC1=C(Cl)[C@]2(Cl)[C@@H]3[C@@H]4C[C@@H]([C@H]5O[C@@H]45)[C@@H]3[C@@]1(Cl)C2(Cl)Cl` [Dieldrin] (APCI source condition: Dry, base ion: M+.), the GC retention time in data set [1] came to 19.8 min. The collision cross section in data set [2] is reported as 151.16 Å².

For `ClC1=C(Cl)C2(Cl)C3C4CC(C5OC45)C3C1(Cl)C2(Cl)Cl` (stereo not drawn) [Endrin] (APCI source condition: Wet, base ion: [M+H]+), the GC retention time in data set [1] worked out at 19.4 min. The same compound displayed a collision cross section in data set [2] of 157.95 Å².

With `c1ccc2c(c1)-c1cccc3cccc-2c13` [Fluoranthene] (APCI source condition: Dry, base ion: M+.), the GC retention time in data set [1] was determined as 18.4 min. Moreover, the collision cross section in data set [2] is on record as 138.02 Å².

Compound `ClC1=C(Cl)C2(Cl)[C@H]3[C@@H]4O[C@@H]4[C@H](Cl)[C@H]3C1(Cl)C2(Cl)Cl` (stereo partly drawn) [Heptachlor-exo-epoxide] (APCI source condition: Dry, base ion: [M-H]+) came in with a GC retention time in data set [1] of 18.2 min. In addition, the collision cross section in data set [2] is given as 151.86 Å².

With `ClC1=C(Cl)C2(Cl)C3C(Cl)C=CC3C1(Cl)C2(Cl)Cl` (stereo not drawn) [Heptachlor] (APCI source condition: Dry, base ion: [M-H]+), the GC retention time in data set [1] came out at 16.7 min. Besides, the collision cross section in data set [2] was found to be 157.41 Å².

With `Brc1c(Br)c(Br)c(Br)c(Br)c1Br` [Hexabromobenzene] (APCI source condition: Dry, base ion: M+.), the GC retention time in data set [1] worked out at 21.8 min. This compound also gave a collision cross section in data set [2] of 135.29 Å².

On to `Clc1c(Cl)c(Cl)c(Cl)c(Cl)c1Cl` [Hexachlorobenzene] (APCI source condition: Dry, base ion: M+.), for which the GC retention time in data set [1] came to 14.6 min. Besides, the collision cross section in data set [2] is 135.29 Å².

On to `ClC1CCCC(Br)(Br)C(Cl)(C2=CCCC2)C(Cl)(Cl)C1(Cl)Cl` (stereo not drawn) [Hexachlorocyclopentenyl-dibromocyclooctane] (APCI source condition: Dry, base ion: [M-CH4Cl2Br]+), for which the GC retention time in data set [1] was 24.4 min. In data set [2], this compound gave a collision cross section of 152.06 Å².

In turn, `c1ccc2c(c1)-c1ccc3ccc4cccc5cc-2c1c3c45` [Indeno(1,2,3-cd)pyrene] (APCI source condition: Dry, base ion: M+.) returned a GC retention time in data set [1] of 27.7 min. The compound also came in with a collision cross section in data set [2] of 148.24 Å².

The compound `ClC1=C(Cl)[C@]2(Cl)[C@H]3[C@H]([C@H]4C=C[C@@H]3C4)[C@@]1(Cl)C2(Cl)Cl` [Isodrin] (APCI source condition: Dry, base ion: M+.) gave a GC retention time in data set [1] of 18 min. The collision cross section in data set [2] was determined as 150.98 Å².

In the case of `Brc1ccc(Oc2ccc(Br)cc2Br)cc1` [PBDE 28] (APCI source condition: Dry, base ion: M+.), the GC retention time in data set [1] was 20.1 min. In addition, in data set [2], the collision cross section is on record as 154.31 Å².

For the compound `Brc1cccc(Oc2ccc(Br)c(Br)c2)c1` [PBDE 35] (APCI source condition: Dry, base ion: M+.), the GC retention time in data set [1] came out at 20.3 min. Further, the collision cross section in data set [2] is listed as 154.86 Å².

In data set [1], `Brc1ccc(Oc2ccc(Br)cc2Br)c(Br)c1` [PBDE 47] (APCI source condition: Dry, base ion: M+.) yielded a GC retention time of 22.2 min. Further, the collision cross section in data set [2] came out at 162.71 Å².

For the compound `Brc1ccc(Oc2cc(Br)ccc2Br)c(Br)c1` [PBDE 49] (APCI source condition: Dry, base ion: M+.), in data set [1], the GC retention time came out at 21.8 min. The collision cross section in data set [2] was found to be 163.07 Å².

Turning to `Brc1ccc(Oc2ccc(Br)c(Br)c2)c(Br)c1` [PBDE 66] (APCI source condition: Dry, base ion: M+.), in data set [1], the GC retention time is 22.5 min. For the same compound, the collision cross section in data set [2] is reported as 163.83 Å².

Consider `Brc1ccc(Oc2ccc(Br)c(Br)c2)cc1Br` [PBDE 77] (APCI source condition: Dry, base ion: M+.), for which the GC retention time in data set [1] stood at 23 min. Besides, the collision cross section in data set [2] is listed as 164.62 Å².

Regarding `Brc1ccc(Oc2ccc(Br)c(Br)c2Br)c(Br)c1` [PBDE 85] (APCI source condition: Dry, base ion: M+.), the GC retention time in data set [1] was 25 min. This compound displayed a collision cross section in data set [2] of 170.22 Å².

`Brc1ccc(Oc2cc(Br)c(Br)cc2Br)c(Br)c1` [PBDE 99] (APCI source condition: Dry, base ion: M+.) displayed a GC retention time in data set [1] of 24.2 min. The compound also returned a collision cross section in data set [2] of 169.31 Å².

In turn, `Brc1ccc(Oc2c(Br)cc(Br)cc2Br)c(Br)c1` [PBDE 100] (APCI source condition: Dry, base ion: M+.) gave a GC retention time in data set [1] of 23.7 min. This compound also returned a collision cross section in data set [2] of 169.85 Å².

For the compound `Brc1cc(Br)c(Oc2cc(Br)c(Br)cc2Br)cc1Br` [PBDE 153] (APCI source condition: Dry, base ion: M+.), the GC retention time in data set [1] was 26 min. The compound further had a collision cross section in data set [2] of 180.67 Å².

`Brc1cc(Br)c(Oc2cc(Br)c(Br)cc2Br)c(Br)c1` [PBDE 154] (APCI source condition: Dry, base ion: M+.) registered a GC retention time in data set [1] of 25.4 min. The compound further showed a collision cross section in data set [2] of 178.18 Å².

`Brc1cccc(Oc2c(Br)c(Br)c(Br)c(Br)c2Br)c1Br` [PBDE 173] (APCI source condition: Dry, base ion: M+.): the GC retention time in data set [1] was found to be 30.2 min. Also, the collision cross section in data set [2] came out at 185.08 Å².

As for `Brc1cc(Br)c(Oc2cc(Br)c(Br)c(Br)c2Br)c(Br)c1` [PBDE 182] (APCI source condition: Dry, base ion: M+.), the GC retention time in data set [1] is 28.4 min. This compound gave a collision cross section in data set [2] of 185.51 Å².
